#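 How tested: cells in 96-well plates exposed to compound for 48 hours at five concentrations. Here, GI50 denotes the concentration required for 50% inhibition of growth. TGI: total growth inhibition.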
# Legend:
# Test in all cases: NCI-60 cell line screen, 48 h
# A498 renal = test system: A498 renal
# CCRF-CEM leukemia = test system: CCRF-CEM leukemia
# COLO 205 colon = test system: COLO 205 colon
# HCT-15 colon = test system: HCT-15 colon
# HT29 colon = test system: HT29 colon
# IGROV1 ovarian = test system: IGROV1 ovarian
# SF-295 CNS = test system: SF-295 CNS
# SK-MEL-28 melanoma = test system: SK-MEL-28 melanoma
# SN12C renal = test system: SN12C renal
# SR leukemia = test system: SR leukemia
SMILES,GI50 (A498 renal) [µM],TGI (A498 renal) [µM],GI50 (CCRF-CEM leukemia) [µM],TGI (CCRF-CEM leukemia) [µM],GI50 (COLO 205 colon) [µM],TGI (COLO 205 colon) [µM],GI50 (HCT-15 colon) [µM],TGI (HCT-15 colon) [µM],GI50 (HT29 colon) [µM],TGI (HT29 colon) [µM],GI50 (IGROV1 ovarian) [µM],TGI (IGROV1 ovarian) [µM],GI50 (SF-295 CNS) [µM],TGI (SF-295 CNS) [µM],GI50 (SK-MEL-28 melanoma) [µM],TGI (SK-MEL-28 melanoma) [µM],GI50 (SN12C renal) [µM],TGI (SN12C renal) [µM],GI50 (SR leukemia) [µM],TGI (SR leukemia) [µM]
CCOC(=O)c1c(C)n(Cc2ccc(OC)cc2)c2c1cc(O)c1[nH]c3c(c12)CCCC3,21.3,60.6,4.22,> 100,0.0865,8.35,3.44,13.2,12.9,> 100,3.76,20.5,13.7,42.8,10.7,> 100,7.79,28.9,,
Cc1ccc(C(=O)/C=C/c2ccccc2O)c(C)c1,,> 100,,> 100,,> 100,,> 100,,8.42,,> 100,,> 100,,> 100,,> 100,,
COc1ccc(-c2nc(-c3nc4ccc(C)cc4[nH]3)c3ccccn23)cc1,2.47,9.65,1.97,6.28,3.23,> 100,2.83,> 100,3.36,> 100,2.18,6.12,,,4.61,> 100,3.08,> 100,2.77,> 100
COc1cc(Cc2cc(OC)c(OC)c(OC)c2)ccc1O,,,,> 100,,> 100,,> 100,,> 100,,> 100,,28.6,,> 100,,> 100,,> 100
N#CCCN(c1ccc(/C=C2\N=C(c3ccc(Cl)cc3)OC2=O)cc1)S(=O)(=O)c1ccccc1,,> 100,,,,> 100,,> 100,,> 100,,> 100,,> 100,,> 100,,> 100,,> 100
N#CCCN(CCC#N)c1ccc(/C=C2\N=C(CN3C(=O)c4ccccc4C3=O)OC2=O)cc1,,> 100,,,,,,> 100,,> 100,,> 100,,> 100,,> 100,,> 100,,> 100
COC(=O)CSc1n[nH]c(-c2ccc(O)c([N+](=O)[O-])c2)n1,,> 100,,> 100,,,,> 100,,> 100,,> 100,,> 100,,> 100,,> 100,,> 100
COc1cc(C(=O)O[C@H](C(N)=O)[C@]2(C)CO2)c2ccccc2c1,,,10.9,58,16.6,39.7,23.8,70.6,13.7,27.9,34.6,98.4,20.4,37.9,15.6,31.5,,,,
CC#CC(=O)Nc1ccccc1CC(c1c[nH]c2ccccc12)c1c[nH]c2ccccc12,,,,39.4,,29.7,,32.8,,42.5,,39.2,,58.3,,29.9,,30,,

# Reference: PubChem BioAssay (NCI)
